Molecular target: 5-HT7 serotonin receptor (Homo sapiens, UniProt P34969)
Assay: competitive radioligand binding versus [3H]LSD
Assay type: cell-based

Sequence of 5-HT7 serotonin receptor (P34969 whole entry): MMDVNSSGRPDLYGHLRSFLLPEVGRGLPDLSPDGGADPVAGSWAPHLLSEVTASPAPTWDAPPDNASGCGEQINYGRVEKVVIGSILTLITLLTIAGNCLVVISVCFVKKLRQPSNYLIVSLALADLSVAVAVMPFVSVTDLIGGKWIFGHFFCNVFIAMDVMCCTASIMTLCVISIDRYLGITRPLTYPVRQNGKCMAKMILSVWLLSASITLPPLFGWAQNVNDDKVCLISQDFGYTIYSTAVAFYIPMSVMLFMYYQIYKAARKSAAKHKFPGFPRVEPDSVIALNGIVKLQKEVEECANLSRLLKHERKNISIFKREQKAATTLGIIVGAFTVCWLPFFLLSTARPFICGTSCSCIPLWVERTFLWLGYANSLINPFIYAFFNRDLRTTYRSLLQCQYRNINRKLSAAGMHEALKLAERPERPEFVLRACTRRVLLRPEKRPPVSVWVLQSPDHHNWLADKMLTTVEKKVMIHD

IC50: 100 µM
Substance: cimicifugic acid KK [compound 4]
